Results: patent publication US7595401B2, “Therapeutic compounds and their use in cancer” (Myriad Pharmaceuticals, Inc., priority 2006, dated 2009)

What was measured:
Luciferase refolding = Luciferase refolding assay; type: biochemical; parameters: key: *Compound is active in Luciferase refolding assay; details: compound fluorescent in FP binding assay
purified human Hsp90 = experiment: Binding Assay: fluorescence polarization with BODIPY-labeled geldanamycin; details: BODIPY-GM 10 nM, Hsp90 30 nM
Summary of the method: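 Fluorescence polarization competition with BODIPY-geldanamycin (10 nM final) and human Hsp90 (30 nM final) in HEPES-KOH pH 7.3 buffer with molybdate, NP-40, DTT; 2% DMSO, overnight at room temperature. Read 485/530 nm; percent inhibition from mP normalized to DMSO controls, fluorescent-compound points excluded.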

| Structure (SMILES) | IC50 (purified human Hsp90) [nM] | also measured |
| --- | --- | --- |
| CC(C)(C)OC(=O)N1CCOC(CCn2cnc(N)c3nc(Sc4cc5c(cc4Br)OCO5)nc2-3)C1 (centres unmarked) [Example 368, tert-Butyl 2-(2-{6-amino-8-[(6-bromo-1,3-benzodioxol-5-yl)thio]-3H-purin-3-yl}ethyl)morpholine-4-carboxylate] |  | active in Luciferase refolding assay (asterisk footnote) (Luciferase refolding): *Fluorescent |
| Nc1ncn(CCC2(F)C(F)(F)C(F)(F)C(F)(F)C(F)(F)C2(F)F)c2nc(Sc3cc4c(cc3Br)OCO4)nc1-2 [Example 377, 8-[(6-Bromo-1,3-benzodioxol-5-yl)thio]-3-[2-(undecafluorocyclohexyl)ethyl]-3H-purin-6-amine] |  | active in Luciferase refolding assay (asterisk footnote) (Luciferase refolding): *Fluorescent |
| COc1ccc(OC)c(Sc2nc3c(N)ncnc3n2CCC(NC(=O)OC(C)(C)C)C2CC2)c1 (centres unmarked) [Example 664, tert-Butyl(3-{6-amino-8-[(2,5-dimethoxyphenyl)thio]-9H-purin-9-yl}-1-cyclopropylpropyl)carbamate] |  | active in Luciferase refolding assay (asterisk footnote) (Luciferase refolding): *Fluorescent |
| CC(C)NC(=O)NC(CCn1c(Sc2cc3c(cc2Br)OCO3)nc2c(N)ncnc21)C1CC1 (centres unmarked) [Example 678, N-(3-{6-Amino-8-[(6-bromo-1,3-benzodioxol-5-yl)thio]-9H-purin-9-yl}-1-cyclopropylpropyl)-N′-isopropylurea] |  | active in Luciferase refolding assay (asterisk footnote) (Luciferase refolding): *Fluorescent |
| CC(C)C[C@H](N)C(=O)N1CCC(CCn2c(Sc3cc4c(cc3Br)OCO4)nc3c(N)ncnc32)CC1 [Example 744, 9-(2-{1-[(2S)-2-Amino-4-methylpentanoyl]piperidin-4-yl}ethyl)-8-[(6-bromo-1,3-benzodioxol-5-yl)thio]-9H-purin-6-amine] | 68 |  |
| C[C@@H](N)C(=O)N1CCC(CCn2c(Sc3cc4c(cc3Br)OCO4)nc3c(N)ncnc32)CC1 [Example 746, 9-(2-{1-[(2R)-2-Aminopropanoyl]piperidin-4-yl}ethyl)-8-[(6-bromo-1,3-benzodioxol-5-yl)thio]-9H-purin-6-amine] | 240 |  |
| C[C@H](N)C(=O)N1CCCC(CCn2c(Sc3cc4c(cc3Br)OCO4)nc3c(N)ncnc32)C1 (stereo partly drawn) [Example 747, 9-(2-{1-[(2S)-2-Aminopropanoyl]piperidin-3-yl}ethyl)-8-[(6-bromo-1,3-benzodioxol-5-yl)thio]-9H-purin-6-amine] | 110 |  |
| CC(C)C[C@H](N)C(=O)N1CCCC(CCn2c(Sc3cc4c(cc3Br)OCO4)nc3c(N)ncnc32)C1 (stereo partly drawn) [Example 748, 9-(2-{1-[(2S)-2-Amino-4-methylpentanoyl]piperidin-3-yl}ethyl)-8-[(6-bromo-1,3-benzodioxol-5-yl)thio]-9H-purin-6-amine] | 210 |  |
| CN[C@@H](C)C(=O)N1CCC(CCn2c(Sc3cc4c(cc3Br)OCO4)nc3c(N)ncnc32)CC1 [Example 749, 8-[(6-Bromo-1,3-benzodioxol-5-yl)thio]-9-(2-{1-[(2S)-2-(methylamino)propanoyl]piperidin-4-yl}ethyl)-9H-purin-6-amine] | 330 |  |
| CC(C)(N)C(=O)N1CCC(CCn2c(Sc3cc4c(cc3Br)OCO4)nc3c(N)ncnc32)CC1 [Example 750, 9-{2-[1-(2-Amino-2-methylpropanoyl)piperidin-4-yl]ethyl}-8-[(6-bromo-1,3-benzodioxol-5-yl)thio]-9H-purin-6-amine] | 180 |  |
| Nc1ncnc2c1nc(Sc1cc3c(cc1Br)OCO3)n2CCC1CCN(C(=O)C2(N)CC2)CC1 [Example 751, 9-(2-{1-[(1-Amino-cyclopropyl)carbonyl]piperidine-4-yl}ethyl)-8-[(6-bromo-1,3-benzodioxol-5-yl)thio]-9H-purin-6-amine] | 195 |  |
| Nc1ncnc2c1nc(Sc1cc3c(cc1Br)OCO3)n2CCC1CCN(C(=O)[C@@H]2CCCN2)CC1 [Example 753, 8-[(6-Bromo-1,3-benzodioxol-5-yl)thio]-9-[2-(1-L-prolyl-piperidin-4-yl)ethyl]-9H-purin-6-amine] | 59 |  |
| C[C@@H](N)C(=O)N1CCC[C@@H](CCn2c(Sc3cc4c(cc3Br)OCO4)nc3c(N)ncnc32)C1 [Example 755, 9-(2-{(3S)-1-[(2R)-2-Aminopropanoyl]piperidin-3-yl}ethyl)-8-[(6-bromo-1,3-benzodioxol-5-yl)thio]-9H-purin-6-amine] | 140 |  |
| Nc1ncnc2c1nc(Sc1cc3c(cc1Br)OCO3)n2CCC1CCN(C(=O)CO)CC1 [Example 760, 2-[4-(2-{6-Amino-8-[(6-bromo-1,3-benzodioxol-5-yl)thio]-9H-purin-9-yl}ethyl)piperidin-1-yl]-2-oxoethanol] | 325 |  |
| C[C@H](O)C(=O)N1CCC(CCn2c(Sc3ccc4c(c3)CCO4)nc3c(N)ncnc32)CC1 [Example 768, (2S)-1-(4-{2-[6-Amino-8-(2,3-dihydro-1-benzofuran-5-ylthio)-9H-purin-9-yl]ethyl}piperidin-1-yl)-1-oxopropan-2-ol] | > 5000 |  |
| C[C@H](NC(=O)OC(C)(C)C)C(=O)N1CCC(CCn2c(Sc3nc4cccc(Cl)c4s3)nc3c(N)ncnc32)CC1 [Example 773, tert-Butyl {(1S)-2-[4-(2-{6-amino-8-[(7-chloro-1,3-benzothiazol-2-yl)thio]-9H-purin-9-yl}ethyl)piperidin-1-yl]-1-methyl-2-oxoethyl}carbamate] | 390 |  |
| C[C@H](N)C(=O)N1CCC(CCn2c(Sc3nc4cccc(Cl)c4s3)nc3c(N)ncnc32)CC1 [Example 774, 9-(2-{1-[(2S)-2-Aminopropanoyl]piperidin-4-yl}ethyl)-8-[(7-chloro-1,3-benzothiazol-2-yl)thio]-9H-purin-6-amine] | 200 |  |
| C[C@H](O)C(=O)N1CCC(CCn2c(Sc3nc4cccc(Cl)c4s3)nc3c(N)ncnc32)CC1 [Example 775, (2S)-1-[4-(2-{6-Amino-8-[(7-chloro-1,3-benzothiazol-2-yl)thio]-9H-purin-9-yl}ethyl)piperidin-1-yl]-1-oxopropan-2-ol] | 1800 |  |
| C[C@H](NC(=O)OC(C)(C)C)C(=O)N1CCCC(Cn2cnc(N)c3nc(Sc4cc5c(cc4Br)OCO5)nc2-3)C1 (stereo partly drawn) [Example 779, tert-butyl {(1S)-2-[3-({6-amino-8-[(6-bromo-1,3-benzodioxol-5-yl)thio]-3H-purin-3-yl}methyl)piperidin-1-yl]-1-methyl-2-oxoethyl}carbamate] |  | % Inhibition at 5 μM Compound Concentration (purified human Hsp90; 5 μM compound): 43.00% |

The next lines start with results.

| IC50 (purified human Hsp90) [nM] | Structure (SMILES) | also measured |
| --- | --- | --- |
| 140 | C[C@H](N)C(=O)N1CCC(CCn2c(Sc3cc4c(cc3Br)OCO4)nc3c(N)ncnc32)CC1 [Example 742, 9-(2-{1-[(2S)-2-Aminopropanoyl]piperidin-4-yl}ethyl)-8-[(6-bromo-1,3-benzodioxol-5-yl)thio]-9H-purin-6-amine] |  |
| 40 | C[C@@H](N)C(=O)N1CCCC(CCn2c(Sc3cc4c(cc3Br)OCO4)nc3c(N)ncnc32)C1 (stereo partly drawn) [Example 743, 9-(2-{1-[(2R)-2-Aminopropanoyl]piperidin-3-yl}ethyl)-8-[(6-bromo-1,3-benzodioxol-5-yl)thio]-9H-purin-6-amine] |  |
| 123 | CC(C)[C@H](N)C(=O)N1CCCC(CCn2c(Sc3cc4c(cc3Br)OCO4)nc3c(N)ncnc32)C1 (stereo partly drawn) [Example 745, 9-(2-{1-[(2S)-2-Amino-3-methylbutanoyl]piperidin-3-yl}ethyl)-8-[(6-bromo-1,3-benzodioxol-5-yl)thio]-9H-purin-6-amine] |  |
| 130 | Nc1ncnc2c1nc(Sc1cc3c(cc1Br)OCO3)n2CCC1CCN(C(=O)[C@@H]2CCN2)CC1 [Example 752, 9-(2-{1-[(2S)-Azetidin-2-ylcarbonyl]piperidin-4-yl}ethyl)-8-[(6-bromo-1,3-benzo-dioxol-5-yl)thio]-9H-purin-6-amine] |  |
| 50 | Nc1ncnc2c1nc(Sc1cc3c(cc1Br)OCO3)n2CCC1CCN(C(=O)[C@@H]2CCCCN2)CC1 [Example 754, 8-[(6-Bromo-1,3-benzodioxol-5-yl)thio]-9-(2-{1-[(2S)-piperidin-2-ylcarbonyl]piperidin-4-yl}ethyl)-9H-purin-6-amine] |  |
| 205 | C[C@H](O)C(=O)N1CCC(CCn2c(Sc3cc4c(cc3Br)OCO4)nc3c(N)ncnc32)CC1 [Example 757, (2S)-1-[4-(2-{6-amino-8-[(6-bromo-1,3-benzodioxol-5-yl)thio]-9H-purin-9-yl}ethyl)piperidin-1-yl]-1-oxopropan-2-ol] |  |
| 120 | Nc1ncnc2c1nc(Sc1cc3c(cc1Br)OCO3)n2CCC1CCN(C(=O)[C@@H](O)CO)CC1 [Example 771, (2S)-3-[4-(2-{6-amino-8-[(6-bromo-1,3-benzodioxol-5-yl)thio]-9H-purin-9-yl}ethyl)piperidin-1-yl]-3-oxopropane-1,2-diol] |  |
| > 5000 | C[C@H](NC(=O)OC(C)(C)C)C(=O)N1CCC(CCn2c(Br)nc3c(N)ncnc32)CC1 [Example 772, tert-Butyl ((1S)-2-{4-[2-(6-amino-8-bromo-9H-purin-9-yl)ethyl]piperidin-1-yl}-1-methyl-2-oxoethyl)carbamate] |  |
| 310 | CC(=O)N1CCC[C@H]1C(=O)N1CCC(CCn2c(Sc3cc4c(cc3Br)OCO4)nc3c(N)ncnc32)CC1 [Example 776, 9-{2-[1-(1-Acetyl-L-prolyl)piperidin-4-yl]ethyl}-8-[(6-bromo-1,3-benzodioxol-5-yl)thio]-9H-purin-6-amine] |  |
| 2000 | C[C@H](NC(=O)OC(C)(C)C)C(=O)N1CCCC(Cn2c(Sc3cc4c(cc3Br)OCO4)nc3c(N)ncnc32)C1 (stereo partly drawn) [Example 778, tert-Butyl {(1S)-2-[3-({6-amino-8-[(6-bromo-1,3-benzodioxol-5-yl)thio]-9H-purin-9-yl}methyl)piperidin-1-yl]-1-methyl-2-oxoethyl}carbamate] |  |
